Results published in patent publication US11969476B2, “Antibody molecule-drug conjugates and uses thereof” (priority 2020, dated 2024).
Converted amounts (≈) assume the structure as drawn. Read-outs that look alike come from different tables or passages of the source. Square brackets hold non-standard residues; d marks the D form. Ends that are not written are not given here. Peptide text beside a SMILES is read from it.

How the values were obtained:
[1] = test system: Sau 29213; assay: MIC determination (CLSI, 2-fold serial dilutions); assay type: cell-based, S. Aureus
Protocol: (§1) Assessment of Antimicrobial Activity. […] All plates were placed at 37° C. overnight. After 18 hours the plates were read using a mirrored plate reader and reflected incandescent light. […] Wells at and above the MIC should appear void of growth when read by eye.

[2] = test system: P. aeruginosa BAA-2112; design: key: R = Resistant; S = Suspectible; I = Intermediate; NT = Note Tested; settings: strain BAA-2112, isolated from human sputum; cited from earlier work
[3] = test system: P. aeruginosa BAA-2109; design: key: R = Resistant; S = Suspectible; I = Intermediate; NT = Note Tested; settings: strain BAA-2109, isolated from human sputum; cited from earlier work
[4] = test system: Pae 39324; assay: MIC determination (CLSI, 2-fold serial dilutions); assay type: cell-based, Pseudomonas aeruginosa
Protocol: as §1

[5] = test system: Pae 27853; assay: MIC determination (CLSI, 2-fold serial dilutions); assay type: cell-based, Pseudomonas aeruginosa
Protocol: as §1

[6] = Cytotoxicity to mammalian cells; settings: human, 293T cells
[7] = MIC in human serum (hsMIC) relative to MIC; assay type: cell-based; settings: NA, no active in human serum
Protocol: In an embodiment, the MIC is determined in the presence of phosphate-buffered saline (PBS). In an embodiment, the MIC or hsMIC is determined on per ADC basis. In an embodiment, the MIC or hsMIC is determined on per payload or antimicrobial peptide basis.

[8] = test system: P. aeruginosa BAA-2113; settings: strain BAA-2113, isolated from human sputum; cited from earlier work
[9] = test system: P. aeruginosa BAA-2108; design: key: R = Resistant; S = Suspectible; I = Intermediate; NT = Note Tested; settings: strain BAA-2108, isolated from human sputum; cited from earlier work
[10] = test system: P. aeruginosa BAA-2110; design: key: R = Resistant; S = Suspectible; I = Intermediate; NT = Note Tested; settings: strain BAA-2110, isolated from human sputum; cited from earlier work
[11] = test system: human red blood cells
[12] = test system: Eco 25922; assay: MIC determination (CLSI, 2-fold serial dilutions); assay type: cell-based, E. coli
Protocol: as §1

[13] = test system: P. aeruginosa BAA-2111; design: key: R = Resistant; S = Suspectible; I = Intermediate; NT = Note Tested; settings: strain BAA-2111, isolated from human sputum; cited from earlier work
[14] = test system: P. aeruginosa BAA-2114; design: key: R = Resistant; S = Suspectible; I = Intermediate; NT = Note Tested; settings: strain BAA-2114, isolated from human sputum; cited from earlier work
[15] = in words, human serum
Protocol: Assessment of Serum Stability. […] Twenty μl of each test article was placed in a 2.0 ml round bottom microfuge tube. […] Assay tubes were placed at 37° C. in a rotating rack between time-points. […] Supernatant from each tube was collected and frozen at −20° C. for analysis. Samples were harvested and processed at various time-points up to 6 hours.

[16] = test system: human red blood cells; assay: Red blood cell hemolysis (MLC, PLC); settings: in words
[17] = test system: 293T; assay: Cytotoxicity to mammalian cells; settings: in words
[18] = test system: P. aeruginosa; assay: MIC testing of antimicrobial peptides (screen); assay type: cell-based; settings: in words
Source text: Initially, a bioinformatics-driven workflow (mine public database of AMPs (YADAMP)→cluster AMPs by properties→evaluate activity and toxicity) was utilized to select AMPs for experimental characterization to identify potent payloads with a high therapeutic index (FIG. 7A). […] To facilitate identification of AMPs for use in an ADC, a screening strategy that clustered peptides based on their underlying physicochemical properties was implemented, followed by characterization of representative members from each cluster. Here YADAMP, a database of AMPs that contains over 2,500 sequences of peptides with reported antibacterial activity, was used. Clustering was performed by utilizing a K-means algorithm using calculated properties that have been reported to be relevant to antimicrobial activity (peptide length, predicted helicity, predicted hydropathy, percentage of select amino acids [Lys, Arg, Trp, Cys, His], and charge at pH7, pH5, and pH9). […] Once potent peptides with favorable characteristics were identified, the remaining members of the corresponding clusters were then selected for experimental characterization. […]
Assessment of Antimicrobial Activity. […] After 18 hours the plates were read using a mirrored plate reader and reflected incandescent light. […] Wells at and above the MIC should appear void of growth when read by eye.

[19] = in vitro; settings: human, Cytotox CC50
[20] = test system: P. aeruginosa PA14; assay: Acute (immunocompetent) lung infection model; settings: immunocompetent mice, single intraperitoneal dose 15 mg/kg three hours post-infection, 100 hours
[21] = numbers in parentheses are molar equivalents

CC(C)(O/N=C(\C(=O)N[C@@H]1C(=O)N2C(C(=O)[O-])=C(C[n+]3ccccc3)CS[C@H]12)c1csc(N)n1)C(=O)O [Ceftazidime]
MIC Sau 29213 [1]: 4 μg,/ml
MIC Sau 29213, molar equivalents [1, 21]: (7.3)
antibiotic resistance phenotype [2]: S
antibiotic resistance phenotype [3]: S
MIC Pae 39324 [4]: 1 μg,/ml
MIC Pae 39324, molar equivalents [4, 21]: (1.8)
MIC Pae 27853 [5]: 1 μg,/ml
MIC Pae 27853, molar equivalents [5, 21]: (1.8)
CC50 ([6]; Cytotox CC50, concentration at which 50% cytotoxicity of mammalian cells is observed): 550 µg/mL (≈ 1010 µM)
Human Serum hsMIC/MIC [7]: 1
antibiotic resistance phenotype [8]: I/R
antibiotic resistance phenotype [9]: S
antibiotic resistance phenotype [10]: S
Hemolysis MLC/MIC [11]: 16
Hemolysis PLC/MIC [11]: 8
MIC Eco 25922 [12]: 0.25 μg,/ml
MIC Eco 25922, molar equivalents [12, 21]: (0.5)
antibiotic resistance phenotype [13]: S
antibiotic resistance phenotype [14]: S

CC[C@@H](C)[C@@H](NC(=O)[C@H](NC(=O)[C@@H](CCCNC(=N)N)NC(=O)[C@H]1CCCN1C(=O)[C@@H](CCCCN)NC(=O)[C@@H](CCCCN)NC(=O)[C@@H](Cc1ccccc1)NC(=O)[C@@H](Cc1ccccc1)NC(=O)[C@@H](CCC(=O)O)NC(=O)[C@@H](CCCCN)NC(=O)[C@@H](C)NC(=O)[C@@H](CCCNC(=N)N)NC(=O)[C@@H](CCCCN)NC(=O)[C@@H](CCCCN)NC(=O)[C@H](NC(=O)[C@@H](CO)NC(=O)[C@@H](CCCCN)NC(=O)[C@@H](CCCCN)NC(=O)[C@@H](CC(C)C)NC(=O)[C@@H](CCCCN)NC(=O)[C@@H](CCCNC(=N)N)NC(=O)[C@@H](Cc1ccccc1)NC(=O)[C@@H](Cc1ccccc1)NC(=O)[C@@H](CCCCN)NC(=O)CNC(=O)CNC(=O)CN)C(C)C)C(C)C)C(=O)NCC(=O)N[C@@H](C(=O)N[C@H](CO)C(=O)N[C@@H](C(=O)N1CCC[C@@H]1C(=O)N[C@H](Cc1ccccc1)C(=O)O)[C@H](C)CC)C(C)C [Peptide D297] (H-GGG[dK][dF][dF][dR][dK][dL][dK][dK][dS][dV][dK][dK][dR][dA][dK][dE][dF][dF][dK][dK][dP][dR][dV][dI]G[dV][dS][dI][dP][dF]-OH)
serum stability [15]: stable in serum
serum stability ([15]; listed as (D)-P297): more stable than (L)-P297
hemolytic activity [16]: low hemolytic and cytotoxic activity
cytotoxic activity against mammalian cells [17]: low hemolytic and cytotoxic activity

GGGHTASDAAAAAALTAANAAAAAAASMA [Peptide P292]
MIC Sau 29213 [1]: >128 μg,/ml
MIC Pae 39324 [4]: >128 μg,/ml
MIC Pae 27853 [5]: >128 μg,/ml
CC50 [6]: 250 µg/mL
MIC Eco 25922 [12]: >128 μg,/ml

GGGKLLRKLKKSVKKRAKELLKKPRVIGVSIPL [Peptide P369]
potency against P. aeruginosa [18]: more potent peptide

GGGRGLRRLGRKIAHGVKKYGPTVLRIIKKYG [Peptide P294]
CC50 [19]: 120 µg/mL

cathelicidin-BF
potency against P. aeruginosa [18]: potent MIC values against multiple P. aeruginosa strains
hemolytic activity [16]: low hemolytic activity
cytotoxic activity against mammalian cells [17]: inability to kill mammalian cells

B1: actoxumab-D297: sham-conjugate prepared using a non-P. aeruginosa targeting antibody (actoxumab) (conjugate, chains of the INN, looked up)
VH: QVQLVESGGGVVQPGRSLRLSCAASGFSFSNYGMHWVRQAPGKGLEWVALIWYDGSNEDYTDSVKGRFTISRDNSKNTLYLQMNSLRAEDTAVYYCARWGMVRGVIDVFDIWGQGTVVTVSS
VL: DIQMTQSPSSVSASVGDRVTITCRASQGISSWLAWYQHKPGKAPKLLIYAASSLQSGVPSRFSGSGSGTDFTLTISSLQPEDFATYYCQQANSFPWTFGQGTKVEIK
modifications: D297 payload; sham conjugate
survival [20]: no survival benefit
